# According to patent publication US20240407364A1, “METHODS OF WEED CONTROL” (Weedout Ltd., priority 2021, published 2024):
# “Also recorded” adds a separate entry of the source.
# Legend:
# [1] = test system: A. palmeri female plants; test: Exp 289: seed set of female plants pollinated 1.5 hours to 10 days after Clethodim; type: in vivo, Amaranthus palmeri; details: Select Super 3.5 ml/l
# Procedure: The goal of this experiment was to examine the effects of Clethodim (Select Super™) on seed set in A. palmeri female plants. The results of Example 1 provided an initial indication on a reduction in seed set one week after an application of Clethodim. The following experiment tested the effect of Clethodim on seed set when pollination occurs from 1.5 hours to 10 days after treatment with Clethodim.
# The experiment was conducted during June-July 2021 at the tests farm of the Tests farm of the Faculty of Agriculture, Rehovot, Israel, Israel. A. palmeri plants were sown in germinating trays. Three weeks after the seedlings had emerged, they were transplanted to 4 L pots with a potting soil mixture. The female plants were separated from the male plants and were grown outside in a location isolated from air-borne pollen. Upon maturation, 6 female plants were selected and divided into 2 groups of 3 plants.
# Spraying of the entire plants with either tap water or Select Super™ (3.5 ml/1) using a hand-held 1.5 L sprayer, with enough distance between the groups to prevent contamination.
# To test the effect of Clethodim on seed set, the inflorescence of the plants were artificially pollinated. On each time interval, a paper tube with 10 mg of fresh non-irradiated pollen was carefully placed on an inflorescence, leaving it for 20 minutes before removing. […]
# [2] = test system: A. palmeri male plants; test: Exp 321: male sterility agents screening #2, pollen production; type: in vivo, Amaranthus palmeri; details: 7 ml/L (high rate); collection up to 12 DAA
# Procedure: The goal of this experiments was to repeat results with Select Super™ (Arysta Lifescience) and test an additional formulation of clethodim to act as a sterilant on A. palmeri male plants.
# The experiment was conducted during September-October 2022 in a net house in Rehovot, Israel. A. palmeri plants were sown in germinating trays, 3 weeks after the seedlings had emerged, the male plants were transplanted in the net house. A. palmeri plants were divided into 4 groups of 10 plants each, 40 male plants in total.
# Once the male plants had all started to flower, the pollen had been collected daily with a vacuum cleaner in the same manner as described in Example 1. Pollen was collected in specific days following the applications up to 12 DAA.
# The experiment tested 2 male sterilant agents: (1) Clethodim (Select Super™, Arysta Lifescience) low rate: 3.5 ml/L and high rate: 7 ml/L, (2) Clethodim (Arrow Super™, Adama) 7 ml/L. Another group of plants were not treated at all and served as a control.
# Treatment procedure was conducted as follows: spraying of the entire plants using a hand-held 1.5 L sprayer for a full cover of all plant parts. Each group of plants was sprayed with the tested treatment while keeping enough distance between the groups to prevent contamination.
# [3] = test system: A. palmeri females; test: Exp 254: seed set of females pollinated one week after treatment; type: in vivo, Amaranthus palmeri
# Procedure: (§1) The experiment was conducted during April-May 2021 in a net house in Rehovot, Israel. A. palmeri plants were sown in germinating trays. Three weeks after the seedlings had emerged, the male plants were transplanted in the net house. A. palmeri plants were divided into 10 groups of 10 plants, 100 male plants in total. In addition, 30 females, 3 females per treatment, were transplanted in 4 L pots with a potting soil mixture and were grown in a different net house, isolated from male pollen.
# (§2) The treatments were applied using a hand-held sprayer, the females were sprayed first and then the males. ˜650 ml solution was used per treatment for both males and females, except the Paraffin:Silicon oil treatment in which 500 ml was used. The solutions were sprayed on top of the plants except the Diuron that was sprayed directly to the soil and stem, except for one female that was sprayed on top. To activate the Diuron, each plant was watered with 1 L of water.
# The experiment aimed to test not just the male sterility properties of the agents but also to examine the effect on the seed set. To do so, one week after treatment, the main inflorescence of each female (except the blank) was pollinated with fresh pollen mixed with talc in 2:1 ratio using a puffer. 70 mg of pollen was applied on each female. Two weeks after pollination the inflorescences were harvested, dried, thrashed and the seeds were counted.
# [4] = test system: Amaranthus tuberculatus male plants; test: Exp 401: Amaranthus tuberculatus pollen production; type: in vivo; details: Select Super 7 ml/L
# Procedure: (§3) The goal of this experiment was to examine if ACCase inhibitors can function as a sterilant on other broadleaf families.
# (§4) The experiment was conducted during April-June 2022 at the test farm of the Faculty of Agriculture in Rehovot, Israel. The different broad leaf species (Table 5) were sown in germination trays. 3-4 weeks after the seedling had emerged, they were transplanted in 4 L pots with potting soil mixture. Amaranthus tuberculatus female plants were separated from male plants and grown outside in a location isolated from air borne pollen. Upon maturation, 10 plants from each species, except for A. tuberculatus females, were selected and divided into 2 groups (control and treatment). In A. tuberculatus, 8 female plants were used for the testing.
# (§5) All the treated plants were sprayed with clethodim (Select Super™, Arysta Lifescience) in 7 ml/L rate while the control group was treated with tap water. […]
# (§6) Four, 7 14 and 21 days after treatment, the plants were visually examined carefully to identify possible sterilant effects such as reduction in pollen production, growth delay, damaged flowers, loss of flowers, loss of pods and phytotoxicity. These effects were measured or evaluated and recorded. The average values of each parameter were calculated both for the treated and for the control groups and a statistical analysis was conducted.
# [5] = test system: Abutilon theophrasti; test: Exp 401: clethodim on Abutilon theophrasti; type: in vivo; details: Select Super 7 ml/L
# Procedure: as §3, §4
# (§7) All the treated plants were sprayed with clethodim (Select Super™, Arysta Lifescience) in 7 ml/L rate while the control group was treated with tap water.
# (§8) Treatment procedure was conducted as follows: spraying of the entire plants with the different treatments using electric back sprayer for a full cover, with enough distance between the groups to prevent contamination.
# as §6
# [6] = test system: A. palmeri male plants; test: Exp 275: pollen weight of male plants after male sterilant agents; type: in vivo, Amaranthus palmeri
# Procedure: The experiment was conducted during May-June 2021 in a net house in Rehovot, Israel. A. palmeri plants were sown in the net house soil and were grown for over a month before the experiment started. A. palmeri plants were divided into 6 groups of 10 plants, 60 male plants in total.
# The plants were mature and produced pollen when the experiment started. The pollen had been collected daily with a vacuum cleaner. The vacuum cleaner had been mounted with a replaceable filter located ahead of the dust container, thus catching the pollen before it enters the container and improving its collection. Pollen was collected for 5 days before the treatment and was continued for 2 weeks afterwards.
# The experiment tested 5 male sterilant agents: (I) Silicon oil 2 cST; (II) 2% Paraffin oil (Life—Superpharm) in Silicon oil 2 c/st; (III) 10% Paraffin oil (Life—Superpharm) in Silicon oil 2 cST; (IV) Clethodim (Select Super™), same as in Example 1; (V) Pyrithiobac, at 1/10 the concentration used in experiment II. Another group of plants was not treated at all (Blank).
# The treatments were applied using a hand-held sprayer. The solutions were sprayed on top of the plants.
# [7] = test system: Solanum nigrum; test: Exp 401: clethodim on Solanum nigrum; type: in vivo; details: Select Super 7 ml/L; 15 DAA; p-value 0.0048
# Procedure: as §3, §4, §5, §6
# [8] = test system: A. palmeri male plants; test: Exp 254: pollen production of male plants after spraying male sterilant agents; type: in vivo, Amaranthus palmeri
# Procedure: as §1
# Once the male plants had all started to flower, the pollen had been collected daily with a vacuum cleaner. The vacuum cleaner had been mounted with a replaceable filter located ahead of the dust container, thus catching the pollen before it enters the container and improving its collection. A new filter was used for each group, and the filters were kept in a 50 ml tube before the pollen was extracted and weighed in the lab.
# (§9) The experiment tested 8 male sterilant agents (Table 2): (1) Triton X-100 (Adama), at label rate, ˜8 times the rate used in experiment I; (2) Tribenuron-Methyl (TBM) (Gadot), 1/100 the rate used in experiment I; (3) 10% Paraffin oil (Life—Superpharm) diluted in Silicon oil 2 cST; (4) E.O.S. (Adama), an insecticide with a physical mode of action, based on petroleum oil; (5) Maleic Hydrazide (Sigma), an Auxin (plant hormone) disruptor known to affect pollen production; (6) Pyrithiobac (IHARA chemical industry co. ltd), an herbicide of the AHAS inhibitors group, regularly used in cotton cultivation to control broadleaf weeds; (7) Diuron (Adama), a herbicide of the Photosystem II inhibitors, regularly used in cotton cultivation; (8) Clethodim (Select Super™ a selective herbicide used to control Gramineae. Another group of plants were treated with water only as control, and another was not treated at all (Blank).
# as §2
# [9] = test system: A. palmeri female plants; test: Exp 313: dose response of Clethodim (Select Super) on seed set; type: in vivo, Amaranthus palmeri; details: for reduction in number of seeds produced in comparison to the control, on average: all time points averaged
# Procedure: The goal of this experiment was to examine dose response of Clethodim (Select Super™) treatment and validate the results of Example 3.
# The experiment was conducted during September 2021 at the tests farm of the Faculty of Agriculture in Rehovot, Israel. A. palmeri plants were sown in germinating trays. 3 weeks after the seedlings had emerged, they were transplanted to 4 L pots with a potting soil mixture. The female plants were separated from the male plants and were grown outside in a location isolated from air-borne pollen. Upon maturation, 9 female plants were selected and divided into 3 groups of 3 plants.
# The experiment tested 2 rates of Select Super™ (Clethodim 120 gr/L-Arysta): (I) Low rate (3.5 ml/1), (II) High rate (7 ml/1). Another group of plants was treated with tap water (Control), [3.5 ml/L treatment=0.42 gr/L in active ingredient, 7 ml/L treatment=0.84 gr/L].
# Treatment procedure was conducted as follows: spraying of the entire plants with the different treatments using a hand-held 1.5 L sprayer, with enough distance between the groups to prevent contamination.
# To test the effect of Clethodim on seed set, artificial pollinations were conducted in several time intervals following clethodim treatment. On each time interval, 2 inflorescences on each plant were artificially pollinated by placing a paper tube with 10 mg of fresh non-irradiated pollen on the inflorescence and leaving it for 20 minutes before removing. On each time interval a total of 6 inflorescences from 3 female plants were pollinated. The intervals were as follows: 1.5-hour, 1 day, 2 days, 4 days, 7 days, 10 days and 22 days after treatment.
# [10] = test system: Amaranthus tuberculatus female plants; test: Exp 401: clethodim on broadleaf panel, Amaranthus tuberculatus seed set; type: in vivo; details: Select Super 7 ml/L
# Procedure: as §3, §4, §7, §8
# To test the effect of treatment on the seed set, artificial pollinations were conducted 7 days following the clethodim treatment. One spike from each plant was artificially pollinated by placing a paper tube with 10 mg of fresh non-irradiated pollen on the spike and leaving it for 20 minutes before removing. A total of 4 spikes from 4 female plants were pollinated.
# as §6
# [11] = test system: A. palmeri females; test: Exp 254: phytotoxicity of the agents on females; type: in vivo, Amaranthus palmeri; details: 3 females per treatment; concentrations of Table 2; Diuron 5 ml/L, Pyrithiobac 5.4 μL/L
# Procedure: as §1
# as §9, with “Another group of plants were treated with water only as control, and another was not treated at all (Blank).” left out
# [12] = average of 3 inflorescences, pollinated one week after treatment
# [13] = Clethodim 3.5 ml/L, 10% Paraffin in 2 cST
# [14] = Clethodim treatment group, FIG. 2
smiles,measurement,setting,value
CCSC(C)CC1CC(=O)C(/C(CC)=N/OC/C=C/Cl)=C(O)C1 (centres unmarked) [Clethodim (Select Super™],abortion rate (aborted seeds/total seeds),[1]; vs tap water,significantly higher compared to the water control
CCSC(C)CC1CC(=O)C(/C(CC)=N/OC/C=C/Cl)=C(O)C1 (centres unmarked) [Clethodim],reduction in pollen production between day 4 and the end of the experiment,[2],78%
same,Average Aborted Seeds,[3]; [12],80.7 number of seeds
same,Average Abortion Rate (fraction of aborted seeds from the total seed number),[3]; [12],0.17
same,Average Normal Seeds,[3]; [12],349 number of seeds
same,Average Seeds/ mg inflo. (total seed number divided by inflorescence weight),[3]; [12],0.78
same,Average Total Seeds,[3]; [12],429.7 number of seeds
same,Average Inflo. Weight,"[3]; average of 3 inflorescences, pollinated one week after treatment, harvested two weeks later",667.3 mg
same,effect on abortion rate compared to the water,[3]; compared to H2O treatment,no effect
same,number of seeds per inflorescence mg as % of the water treatment value,[3]; compared to H2O treatment,~70%
same,duration of the effect on pollen,[4],at least 21 days
same,onset of the effect on pollen,[4],4 days after treatment
same,time from application to start of Blossom-Drop,[5],7 days
same,reduction in average stem length (main stem),"[5]; 15 DAA, p-value *0.0058",19%
same,reduction in average pods number in comparison to the control,"[5]; 15 days after application, p-value *0.0001",75%
same,duration of the reduction in pollen weight,"[6]; 10% Paraffin oil in Silicon oil 2 cST, Clethodim (Select Super) as in Example 1",8 days
same,apparent damage to the plants,[6]; in vivo,did not cause any apparent damage to the plants
same,onset of the reduction in pollen weight after application,[6]; in vivo,5 days
same,reduction in pollen weight compared to the blank,"[6]; maximum reduction, FIG. 4",up to 80%
same,reduction in average total fruit number,[7],35%
same,pollen weight after treatment relative to the lowest amount collected before treatment,[8]; Clethodim 3.5 ml/L,1/10
same,duration of the pollen weight reduction / time to get back to pre-treatment weight,[8]; [13],14 days
same,onset of the reduction in pollen weight,[8]; [13],5 days after treatment
same,onset of pollen production (recovery),[8]; [14],13 DAT
same,period of major reduction in pollen weight,[8]; [14],5-8 DAT
same,visible effect / injury to the treated plants,[8]; male plants after spraying,no apparent injury to the plants; also recorded: no visible effect on the plants
same,visible effect on the plants,[9]; both rates,no visible effect on the plants
same,"reduction in number of seeds produced in comparison to the control, on average",[9]; high rate 7 ml/l (0.84 gr/L active ingredient),92%
same,"reduction in number of seeds produced in comparison to the control, on average",[9]; low rate 3.5 ml/l (0.42 gr/L active ingredient),67%
same,duration of decreased total seed number after application,[1],at least 10 days
same,visible effect on the plants,[10],no visible effect on the plants other than on the flowering organs
same,reduction of average seed weight per spike in comparison to the control spikes,[10]; pollination 7 days after treatment,93%
same,Average total seed weight per spike,"[10]; pollination 7 days after treatment, 4 spikes from 4 plants",13.25 mg
CN(C)C(=O)Nc1ccc(Cl)c(Cl)c1 [Diuron],phytotoxicity on females,[11],killed all three females
COc1cc(OC)nc(Sc2cccc(Cl)c2C(=O)O)n1 [Pyrithiobac],phytotoxicity on females,[11],chlorosis and growth stunt
